Laboratory results reported in ChEMBL document CHEMBL1201862, “PubChem BioAssay data set” (2004).
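Test compounds were applied to cells in 96-well plates for 48 hours at 5 doses. Abbreviation: GI50, concentration required for 50% inhibition of growth.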 Active and inactive are the calls of the source. No stated cut-off is given here; in the data, active = GI50 up to about 1.1 µM and inactive = higher.

Columns and labels:
Assay in all cases: DTP human tumour cell line panel, 48 h
SNB-19 = tested on: SNB-19
LOX IMVI = tested on: LOX IMVI
SN12C = tested on: SN12C
DLD-1 = tested on: DLD-1
HOP-92 = tested on: HOP-92
SK-OV-3 = tested on: SK-OV-3
Malme-3M = tested on: Malme-3M
HOP-18 = tested on: HOP-18
SW-620 = tested on: SW-620
UACC-62 = tested on: UACC-62
HCC 2998 = tested on: HCC 2998
DMS-273 = tested on: DMS-273
M19-MEL = tested on: M19-MEL
EKVX = tested on: EKVX
HL-60 = tested on: HL-60
NCI-H226 = tested on: NCI-H226
K562 = tested on: K562
NCI-H522 = tested on: NCI-H522
SF-295 = tested on: SF-295
RXF 393 = tested on: RXF 393
RPMI-8226 = tested on: RPMI-8226
COLO 205 = tested on: COLO 205
A549 = tested on: A549
KM-20L2 = tested on: KM-20L2
OVCAR-4 = tested on: OVCAR-4
NCI-H460 = tested on: NCI-H460
OVCAR-3 = tested on: OVCAR-3
UACC-257 = tested on: UACC-257
HT-29 = tested on: HT-29
SNB-78 = tested on: SNB-78
NCI-H23 = tested on: NCI-H23
HCT-116 = tested on: HCT-116
OVCAR-8 = tested on: OVCAR-8
U-251 = tested on: U-251
HOP-62 = tested on: HOP-62
CCRF-CEM = tested on: CCRF-CEM
NCI/ADR-RES = tested on: NCI/ADR-RES
KM12 = tested on: KM12
HCT-15 = tested on: HCT-15
UO-31 = tested on: UO-31
IGROV-1 = tested on: IGROV-1
SK-MEL-2 = tested on: SK-MEL-2
XF498 = tested on: XF498
OVCAR-5 = tested on: OVCAR-5
SF-539 = tested on: SF-539
SK-MEL-5 = tested on: SK-MEL-5
CAKI-1 = tested on: CAKI-1
SF-268 = tested on: SF-268
SNB-75 = tested on: SNB-75
A498 = tested on: A498
MOLT-4 = tested on: MOLT-4
SK-MEL-28 = tested on: SK-MEL-28
MCF7 = tested on: MCF7
DMS-114 = tested on: DMS-114

`CCOC(=O)C(C)NC(=O)N(C)C12CC3CC(CC(C3)C1)C2` (configuration not stated) was tested, and the GI50 (SNB-19) was 412 µM (inactive), the GI50 (LOX IMVI) was 116 µM (inactive) and the GI50 (SN12C) was 385 µM (inactive). The GI50 (DLD-1) was 50.7 µM (inactive), the GI50 (HOP-92) was 20.7 µM (inactive) and the GI50 (SK-OV-3) was 237 µM (inactive). The GI50 (Malme-3M) was 194 µM (inactive), the GI50 (HOP-18) was 210 µM (inactive) and the GI50 (SW-620) was 218 µM (inactive). The GI50 (UACC-62) was 175 µM (inactive), the GI50 (HCC 2998) was 268 µM (inactive) and the GI50 (DMS-273) was 209 µM (inactive). The GI50 (M19-MEL) was 177 µM (inactive), the GI50 (EKVX) was 450 µM (inactive) and the GI50 (HL-60) was > 96.8 µM (inactive). For the same compound, the GI50 (NCI-H226) was 233 µM (inactive), the GI50 (K562) was 169 µM (inactive) and the GI50 (NCI-H522) was 135 µM (inactive). The GI50 (SF-295) was 203 µM (inactive), the GI50 (RXF 393) was 153 µM (inactive) and the GI50 (RPMI-8226) was 125 µM (inactive). The GI50 (COLO 205) was 140 µM (inactive), the GI50 (A549) was 197 µM (inactive) and the GI50 (KM-20L2) was 199 µM (inactive). The GI50 (OVCAR-4) was 175 µM (inactive), the GI50 (NCI-H460) was 192 µM (inactive) and the GI50 (OVCAR-3) was 149 µM (inactive). The GI50 (UACC-257) was 133 µM (inactive), the GI50 (HT-29) was 281 µM (inactive) and the GI50 (SNB-78) was 277 µM (inactive). For the same compound, the GI50 (NCI-H23) was 185 µM (inactive), the GI50 (HCT-116) was 173 µM (inactive) and the GI50 (OVCAR-8) was 265 µM (inactive). For the same compound, the GI50 (U-251) was 308 µM (inactive), the GI50 (HOP-62) was 316 µM (inactive) and the GI50 (CCRF-CEM) was 138 µM (inactive). For the same compound, the GI50 (NCI/ADR-RES) was 151 µM (inactive), the GI50 (KM12) was 179 µM (inactive) and the GI50 (HCT-15) was 187 µM. The GI50 (UO-31) was 175 µM (inactive), the GI50 (IGROV-1) was 286 µM (inactive) and the GI50 (SK-MEL-2) was 169 µM (inactive). For the same compound, the GI50 (XF498) was 192 µM (inactive), the GI50 (OVCAR-5) was > 500 µM (inactive) and the GI50 (SF-539) was 344 µM (inactive). For the same compound, the GI50 (SK-MEL-5) was 111 µM (inactive), the GI50 (CAKI-1) was 231 µM (inactive) and the GI50 (SF-268) was 319 µM (inactive). The GI50 (SNB-75) was 77.4 µM (inactive), the GI50 (A498) was 116 µM (inactive) and the GI50 (MOLT-4) was 63.2 µM (inactive). The GI50 (SK-MEL-28) was 317 µM (inactive), the GI50 (MCF7) was 139 µM (inactive) and the GI50 (DMS-114) was 115 µM (inactive).

With `CC1(C)S[C@@H]2[C@H](NC(=O)CCC[C@@H](N)C(=O)O)C(=O)N2[C@H]1C(=O)O` [ADICILLIN] the GI50 (SNB-19) was > 50 µM (inactive), the GI50 (LOX IMVI) was > 50 µM (inactive) and the GI50 (SN12C) was > 50 µM (inactive). The GI50 (DLD-1) was > 50 µM (inactive), the GI50 (HOP-92) was > 50 µM (inactive) and the GI50 (SK-OV-3) was > 41 µM (inactive). The GI50 (Malme-3M) was > 50 µM (inactive), the GI50 (HOP-18) was > 50 µM (inactive) and the GI50 (SW-620) was > 31.6 µM (inactive). For the same compound, the GI50 (UACC-62) was > 50 µM (inactive), the GI50 (HCC 2998) was > 50 µM (inactive) and the GI50 (DMS-273) was > 50 µM (inactive). For the same compound, the GI50 (M19-MEL) was > 50 µM (inactive), the GI50 (EKVX) was > 50 µM (inactive) and the GI50 (HL-60) was > 50 µM (inactive). The GI50 (NCI-H226) was > 50 µM (inactive), the GI50 (K562) was > 50 µM (inactive) and the GI50 (NCI-H522) was > 50 µM (inactive). The GI50 (SF-295) was > 50 µM (inactive), the GI50 (RXF 393) was > 50 µM (inactive) and the GI50 (RPMI-8226) was > 50 µM (inactive). The GI50 (COLO 205) was > 50 µM (inactive), the GI50 (A549) was > 50 µM (inactive) and the GI50 (KM-20L2) was > 24.8 µM (inactive). The GI50 (OVCAR-4) was > 50 µM (inactive), the GI50 (NCI-H460) was > 50 µM (inactive) and the GI50 (OVCAR-3) was > 50 µM (inactive). For the same compound, the GI50 (UACC-257) was > 50 µM (inactive), the GI50 (HT-29) was > 50 µM (inactive) and the GI50 (SNB-78) was > 50 µM (inactive). The GI50 (NCI-H23) was > 50 µM (inactive), the GI50 (HCT-116) was > 50 µM (inactive) and the GI50 (OVCAR-8) was > 19.9 µM (inactive). The GI50 (U-251) was > 25.6 µM (inactive), the GI50 (HOP-62) was > 50 µM (inactive) and the GI50 (CCRF-CEM) was > 50 µM (inactive). For the same compound, the GI50 (NCI/ADR-RES) was > 31.6 µM (inactive), the GI50 (KM12) was > 50 µM (inactive) and the GI50 (HCT-15) was > 50 µM. For the same compound, the GI50 (UO-31) was > 50 µM (inactive), the GI50 (IGROV-1) was > 50 µM (inactive) and the GI50 (SK-MEL-2) was > 50 µM (inactive). The GI50 (XF498) was 24.1 µM (inactive), the GI50 (OVCAR-5) was 23.3 µM (inactive) and the GI50 (SF-539) was > 50 µM (inactive). For the same compound, the GI50 (SK-MEL-5) was > 15 µM (inactive), the GI50 (CAKI-1) was > 50 µM (inactive) and the GI50 (SF-268) was > 50 µM (inactive). The GI50 (SNB-75) was > 50 µM (inactive), the GI50 (A498) was > 44.7 µM (inactive) and the GI50 (MOLT-4) was > 50 µM (inactive). The GI50 (SK-MEL-28) was > 50 µM (inactive) and the GI50 (MCF7) was > 50 µM (inactive).
